Assay results published in patent US8440672B2, “Diphenyl substituted alkanes” (Merck Sharp & Dohme Corp., priority 2006, dated 2013).

Molecular target: T1, FLAP (Homo sapiens, UniProt P20292)
T1 construct: A 100,000×g pellet from human leukocyte 10,000×g supernatants (1) is the source of FLAP; from tissue; host or cells: human leukocytes (100,000 x g membrane pellet)
T1 sequence (P20292 1-161): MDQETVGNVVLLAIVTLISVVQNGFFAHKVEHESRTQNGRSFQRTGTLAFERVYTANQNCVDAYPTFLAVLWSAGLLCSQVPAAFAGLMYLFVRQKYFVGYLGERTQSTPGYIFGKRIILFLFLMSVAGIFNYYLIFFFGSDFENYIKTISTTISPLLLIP
Assay: FLAP Binding Assay
Settings: competition with radiolabelled Compound A; 100,000×g pellet membranes from human leukocyte; 20 minute incubation at room temperature
Protocol: A 100,000×g pellet from human leukocyte 10,000×g supernatants (1) is the source of FLAP. The 100,000×g pellet membranes were resuspended in Tris-Tween assay buffer (100 mM Tris HCl pH 7.4, 140 mM NaCl, 2 mM EDTA, 0.5 mM dithiothreitol, 5% glycerol, 0.05% Tween 20) to yield a final protein concentration of 50 μg to 150 μg/ml. Aliquots (100 μl) of membrane suspension were added to 12 mm×75 mm polypropylene tubes containing 100 μl Tris-Tween assay buffer, 30,000 cpm of Compound A in 5 μl MeOH:assay buffer (1:1), and 2 μl dimethyl sulfoxide or competitor (i.e., the compound to be tested) in dimethyl sulfoxide. Compound B (10 μM final concentration) was used to determine non-specific binding. After a 20 minute incubation at room temperature, tube contents were diluted to 4 ml with cold 0.1 M Tris HCl pH 7.4, 0.05% Tween 20 wash buffer and the membranes were collected by filtration of GFB filters presoaked in the wash buffer. Tubes and filters were rinsed with 2×4 ml aliquots of cold wash buffer. Filters were transferred to 12 mm×3.5 mm polystyrene tubes for determination of radioactivity by gamma-scintillation counting.
Specific binding is defined as total binding minus non-specific binding. Total binding was Compound A bound to membranes in the absence of competitor; non-specific binding was Compound A bound in the presence of 10 uM Compound B. Preparation of Compound A is described in reference 1, below. The IC50 values were obtained by computer analysis (see reference 2, below) of the experimental data.

Row | Compound | IC50
1 | COc1cncc(-c2ccc(C(C)(c3ccc(-c4noc(C5(N)CC5)n4)cn3)C(C)C)cc2)c1 (stereo not shown) [Example 2b] | 3.6 nM
2 | COc1cncc(-c2ccc(C(C)(c3ccc(-c4noc(C(C)(C)O)n4)cn3)C(C)C)cc2)c1 (stereo not shown) [Example 1Ac, 2-[3-(6-{1-[4-(5-methoxypyridin-3-yl)phenyl]-1,2-dimethylpropyl}pyridin-3-yl)-1,2,4-oxadiazol-5-yl]propan-2-ol] | 2.1 nM
3 | CC(C)C(C)(c1ccc(-c2cncc(OCF)c2)cc1)c1ccc(-c2ccc(C(F)(F)F)nn2)cn1 (stereo not shown) [Example 6c, 3-[6-(1-{4-[5-(fluoromethoxy)pyridin-3-yl]phenyl}-1,2-dimethylpropyl)pyridin-3-yl]-6-(trifluoromethyl)pyridazine] | 2.8 nM
4 | COc1cncc(-c2ccc(C(C)(c3ccc(-c4ccc(C(F)(F)F)nn4)cn3)C(C)C)cc2)c1 (stereo not shown) [Example 4Ad, 3-(6-{1-[4-(5-methoxypyridin-3-yl)phenyl]-1,2-dimethylpropyl}pyridin-3-yl)-6-(trifluoromethyl)pyridazine] | 1.4 nM
5 | COc1cncc(-c2ccc(C(C)(c3ccc(-c4ccc(S(C)(=O)=O)nn4)cn3)C(C)C)cc2)c1 (stereo not shown) [Example 5a, 3-(6-{1-[4-(5-methoxypyridin-3-yl)phenyl]-1,2-dimethylpropyl}pyridin-3-yl)-6-(methylsulfonyl)pyridazine] | 0.7 nM
6 | COc1cncc(-c2ccc(C(C)(c3ccc(-c4ccc(C(C)(C)O)nn4)cn3)C(C)C)cc2)c1 (stereo not shown) [Example 4d, 2-[6-(6-{1-[4-(5-methoxypyridin-3-yl)phenyl]-1,2-dimethylpropyl}pyridin-3-yl)pyridazin-3-yl]propan-2-ol] | 1.1 nM
7 | CC(C)C(C)(c1ccc(-c2cncc(OCc3ccccc3)c2)cc1)c1ccc(-c2ccc(C(F)(F)F)nn2)cn1 (stereo not shown) [Example 6Da, 3-[6-(1-{4-[5-(benzyloxy)pyridin-3-yl]phenyl}-1,2-dimethylpropyl)pyridin-3-yl]-6-(trifluoromethyl)pyridazine] | 2.4 nM
8 | CC(C)(C)C(c1ccc(OCc2ccccn2)cc1)c1ccc(-c2nnc(N)o2)cn1 (stereo not shown) [Example 8a, 5-(6-{2,2-dimethyl-1-[4-(pyridin-2-ylmethoxy)phenyl]pronyl}pyridin-3-yl)-1,3,4-oxadiazol-2-amine] | 5.8 nM
9 | CC(C)C(C)(c1ccc(-c2cnc(N)nc2)cc1)c1ccc(-c2ccc(C(C)(C)O)nn2)cn1 (stereo not shown) [Example 4f, 2-[6-(6-{1-[4-(2-aminopyrimidin-5-yl)phenyl]-1,2-dimethylpropyl}pyridin-3-yl)pyridazin-3-yl]propan-2-ol] | 0.5 nM
10 | COC(=O)c1ccc(-c2ccc(C(C)(c3ccc(OCc4ccccn4)cc3)C(C)C)nc2)nn1 (stereo not shown) [Example 10Ah, methyl 6-(6-{1,2-dimethyl-1-[4-(pyridin-2-ylmethoxy)phenyl]propyl}pyridin-3-yl)pyridazine-3-carboxylate] | 0.7 nM
11 | CC(C)C(C)(c1ccc(OCc2nccs2)cc1)c1ccc(-c2noc(C(C)(C)O)n2)cn1 (stereo not shown) [Example 10Ca, 2-[3-(6-{1,2-dimethyl-1-[4-(1,3-thiazol-2-ylmethoxy)phenyl]propyl}pyridin-3-yl)-1,2,4-oxadiazol-5-yl]propan-2-ol] | 2.9 nM
12 | Cn1nnc(-c2ccc(C(c3ccc(OCc4ccccn4)cc3)C(C)(C)C)nc2)n1 (stereo not shown) [Example 9b, 2-{2,2-dimethyl-1-[4-(pyridin-2-ylmethoxy)phenyl]propyl}-5-(2-methyl-2H-tetrazol-5-yl)pyridine] | 14 nM
13 | CC(C)C(C)(c1ccc(-c2ccc(N)nn2)cc1)c1ccc(-c2ccc(C(C)(C)O)nn2)cn1 (stereo not shown) [Example 4g, 2-[6-(6-{1-[4-(6-aminopyridazin-3-yl)phenyl]-1,2-dimethylpropyl}pyridin-3-yl)pyridazin-3-yl]propan-2-ol] | 0.6 nM
14 | CC(C)C(C)(c1ccc(-c2cnc(N)nc2)cc1)c1ccc(C(C)(C)O)cn1 (stereo not shown) [Example 7Ad, 2-(6-{1-[4-(2-aminopyrimidin-5-yl)phenyl]-1,2-dimethylpropyl}pyridin-3-yl)propan-2-ol] | 1.2 nM
15 | CC(C)C(C)(c1ccc(-c2ccc(N)nn2)cc1)c1ccc(C(C)(C)O)cn1 (stereo not shown) [Example 7Bd, 2-(6-(1-[4-(6-aminopyridazin-3-yl)phenyl]-1,2-dimethylpropyl)pyridin-3-yl)propan-2-ol] | 2.3 nM
16 | CC(C)C(C)(c1ccc(OCc2ccccn2)cc1)c1ccc(-c2ccc(C(C)(C)O)nn2)cn1 (stereo not shown) [Example 10Aj, 2-[6-(6-{1,2-dimethyl-1-[4-(pyridin-2-ylmethoxy)phenyl]propyl}pyridin-3-yl)pyridazin-3-yl]propan-2-ol] | 0.7 nM
